Experimental data from US11919900B1 (priority 2023, dated 2024).
Converted amounts (≈) assume the structure as drawn.

Key:
[1] = system: multidrug-resistant (MDR) strains of Mycobacterium tuberculosis; assay: microbe, parasite or virus in culture; format: cell-based; details: for MIC: Mycobacterium tuberculosis, 192 h, read-out: Antitubercular activity against Mycobacterium tuberculosis MDR (MIC)
[2] = system: extensively drug resistant (XDR) strains of Mycobacterium tuberculosis; assay: microbe, parasite or virus in culture; format: cell-based; details: 192 h, read-out: Antitubercular activity against Mycobacterium tuberculosis XDR (MIC)

Compound | MIC [1] | MIC [2] | Antitubercular activity against Mycobacterium tuberculosis MDR (MIC) ([1]; MDR-TB, drug resistance at least to isoniazid and rifampicin, REMA, 8 days at 37° C. then resazurin overnight)
COC(=O)c1c(C(=O)OC)c2c(Br)cc3ccccc3n2c1C(=O)c1ccc(OC)cc1 [QUIN-KNV1, Dimethyl 4-bromo-1-(4-methoxybenzoyl)pyrrolo[1,2-a]quinoline-2,3-dicarboxylate] | 2 µg/mL (≈ 4.03 µM) | 2 µg/mL (≈ 4.03 µM) | –
CCOC(=O)c1cc(C(=O)c2ccc(OC)cc2)n2c1c(Br)cc1ccccc12 [QUIN-KNV2, Ethyl 4-bromo-1-(4-methoxybenzoyl)pyrrolo[1,2-a]quinoline-3-carboxylate] | 4 µg/mL (≈ 8.84 µM) | 4 µg/mL (≈ 8.84 µM) | –
COC(=O)c1c(C(=O)OC)c2c(Br)cc3ccccc3n2c1C(=O)c1ccc(Cl)cc1 [QUIN-KNV3, Dimethyl 4-bromo-1-(4-chlorobenzoyl)pyrrolo[1,2-a]quinoline-2,3-dicarboxylate] | 4 µg/mL (≈ 7.99 µM) | 4 µg/mL (≈ 7.99 µM) | –
CCOC(=O)c1cc(C(=O)c2ccc(Cl)cc2)n2c1c(Br)cc1ccccc12 [QUIN-KNV4, Ethyl 4-bromo-1-(4-chlorobenzoyl)pyrrolo[1,2-a]quinoline-3-carboxylate] | 8 µg/mL (≈ 17.5 µM) | – | –
COC(=O)c1c(C(=O)OC)c2c(Br)cc3ccccc3n2c1C(=O)c1ccc(Br)cc1 [QUIN-KNV5, Dimethyl 4-bromo-1-(4-bromobenzoyl)pyrrolo[1,2-a]quinoline-2,3-dicarboxylate] | 1 µg/mL (≈ 1.83 µM) | 2 µg/mL (≈ 3.67 µM) | –
CCOC(=O)c1cc(C(=O)c2ccc(Br)cc2)n2c1c(Br)cc1ccccc12 [QUIN-KNV6, Ethyl 4-bromo-1-(4-bromobenzoyl)pyrrolo[1,2-a]quinoline-3-carboxylate] | 4 µg/mL (≈ 7.98 µM) | 4 µg/mL (≈ 7.98 µM) | –
COC(=O)c1c(C(=O)OC)c2c(Br)cc3ccccc3n2c1C(=O)c1ccc(F)cc1 [QUIN-KNV7, Dimethyl 4-bromo-1-(4-fluorobenzoyl)pyrrolo[1,2-a]quinoline-2,3-dicarboxylate] | 16 µg/mL (≈ 33 µM) | – | –
CCOC(=O)c1cc(C(=O)c2ccc(F)cc2)n2c1c(Br)cc1ccccc12 [QUIN-KNV8, Ethyl 4-bromo-1-(4-fluorobenzoyl)pyrrolo[1,2-a]quinoline-3-carboxylate] | 4 µg/mL (≈ 9.09 µM) | 4 µg/mL (≈ 9.09 µM) | –
COC(=O)c1c(C(=O)OC)c2c(Br)cc3ccccc3n2c1C(=O)c1ccc(C#N)cc1 [QUIN-KNV9, Dimethyl 4-bromo-1-(4-cyanobenzoyl)pyrrolo[1,2-a]quinoline-2,3-dicarboxylate] | 8 µg/mL (≈ 16.3 µM) | 16 µg/mL (≈ 32.6 µM) | –
CCOC(=O)c1cc(C(=O)c2ccc(C#N)cc2)n2c1c(Br)cc1ccccc12 [QUIN-KNV10, Ethyl 4-bromo-1-(4-cyanobenzoyl)pyrrolo[1,2-a]quinoline-3-carboxylate] | 16 µg/mL (≈ 35.8 µM) | – | –
COC(=O)c1c(C(=O)OC)c2c(Br)cc3ccccc3n2c1C(=O)c1ccccc1 [QUIN-KNV11, Dimethyl 1-benzoyl-4-bromopyrrolo[1,2-a]quinoline-2,3-dicarboxylate] | 16 µg/mL (≈ 34.3 µM) | – | –
Ethyl 4-bromo-1-(2-nitrobenzoyl)pyrrolo[1,2-a]quinoline-3-carboxylate [QUIN-KNV12] | – | – | 8 µg/mL
